{
  "source": "ChEMBL document CHEMBL1157500",
  "about": "“Spiroleptosphol isolated from Leptosphaeria doliolum” (Bioorg Med Chem Lett, 2008)",
  "test_system": "P388",
  "assay": "Cytotoxicity against mouse P388 cells",
  "format": "functional, cell-based",
  "data": [
    {"molecule": "C=C1OC(=O)[C@@]2([C@H](/C=C/[C@H](C)C[C@H](C)CC)C=C[C@@H](O)[C@@H]2O)[C@H]1O", "note": "[SPIROLEPHTOSHOL]", "values": [
      {"measurement": "EC50", "result": 20, "unit": "µg/mL"}
    ]}
  ]
}
